Experimental data reported in patent publication US20240082191A1, “TOPICAL F[…] PHOSPHOLIPID COMPOUNDS” (EGIS GYÓGYSZERGYÁR ZRT., priority 2021, published 2024).

Tests used:
[1] = Pharmacokinetic studies of pregabalin (blood levels), oral and topical
mice, allodynia = conditions: 2.5% aqueous solution, topical; cited from earlier work
human patient = conditions: 2.5% aqueous solution, topical; cited from earlier work
[2] = test system: rats with CCI of sciatic nerve; assay: Rat model of neuropathy: chronic constriction injury (CCI), paw withdrawal threshold with electronic von Frey device; type: in vivo; conditions: 16.66 mg/kg
From the text: Furthermore, based on the article Bennett G J, at al (Pain, A peripheral mononeuropathy in rat that produces disorders of pain sensation like those seen in man. 1988 April; 33(1):87-107) we have developed a method for the examination of the compositions of the present invention. Thus, we have examined the compositions according to the present invention also with a different model for measuring the alleviation of the peripheral neuropathic pain also. Namely, we have carried out examinations on rats using Chronic constriction injury (CCI) model. Three weeks following nerve injury rats were assessed for hind paw mechanical withdrawal thresholds. The paw withdrawal threshold (PWT) was determined with an Electronic von Frey device according to the modified up-down method of Dixon (Efficient analysis of experimental observations, Annu Rev Pharmacol Toxicol. 1980; 20:441-62). […] The method and results are shown in example 3 and on FIG. 9. […]
Briefly, under isoflurane anesthesia small blunt dissection was made into the skin of rat right thigh then three loosely constrictive ligatures were placed around common sciatic nerve (chronic constriction injury CCI). Three weeks following nerve injury rats were assessed for hind paw mechanical withdrawal thresholds. […]

CC(C)C[C@H](CN)CC(=O)O [pregabalin]
Blood levels after oral administration ([1]; oral, 16.66 mg/kg): relatively high blood levels
Amount of pregabalin entering the bloodstream during topical treatment ([1]; topical treatment): very small amounts
Time of maximum allodynia alleviating effect (mice, allodynia): 1 h
Duration of reduction of neuropathic pain in a human patient (human patient): 6 h
Reduction of hypersensitivity after oral administration [2]: not able to reduce hypersensitivity
